# According to ChEMBL document CHEMBL1144744, “Hypoxia-inducible factor-1 and nuclear factor-kappaB inhibitory meroterpene analogues of bakuchiol, a constituent of the seeds of Psoralea corylifolia” (Bioorg Med Chem Lett, 2008):
# Columns and labels:
# [1] = target: Hypoxia inducible factors; HIF-1-alpha, HIF-2-alpha (Homo sapiens, UniProt Q16665+Q99814); assay: Inhibition of hypoxia-induced HIF1 activation in human AGS cells by reporter gene assay; format: cell-based
# [2] = test system: AGS; assay: Cytotoxicity against human AGS cells by MTT assay; format: functional, cell-based
# [3] = Inhibition of TNF-alpha-induced NF-kappaB activation in human HeLa cells; format: cell-based
# [4] = test system: HeLa; assay: Cytotoxicity against human HeLa cells by MTT assay; format: functional, cell-based
Compound,IC50 [1] [µM],IC50 [2] [µM],IC50 [3] [µM],IC50 [4] [µM]
C=C[C@@](C)(/C=C/c1ccc(OC(C)(C)[C@@H](O)CC[C@@](C)(C=C)/C=C/c2ccc(O)cc2)cc1)CCC=C(C)C,> 50,> 50,12.2,> 50
C=C[C@@](C)(/C=C/c1ccc(OCC)cc1)CCC=C(C)C,26.3,> 50,12.2,> 50
C=C[C@@](C)(/C=C/c1ccc(O)cc1)CCC(O)C(C)(C)O (some centres not stated),> 50,> 50,> 50,> 50
C=C[C@@](C)(/C=C/c1ccc(OC)cc1)CCC=C(C)C,8.7,55.8,5.7,> 50
C=C[C@@](C)(/C=C/c1ccc(O)cc1)CCC1OC1(C)C (some centres not stated),> 50,> 50,> 50,> 50
C=C[C@@](C)(/C=C/c1ccc(OC(C)=O)cc1)CCC=C(C)C [ACETYLBAKUCHIOL],5.7,26.8,5.7,18.1
CO[C@H]1/C=C\C=C(/C)C(=O)NC2=CC(=O)C(NCCN(C)C)=C(C[C@@H](C)C[C@H](OC)[C@H](O)[C@@H](C)/C=C(\C)[C@@H]1OC(N)=O)C2=O [ALVESPIMYCIN],0.0036,16,0.15,2.06
C=C[C@@](C)(/C=C/c1ccc(O)cc1)CCC=C(C)C [BAKUCHIOL],6.1,15.3,6.9,11
